Values of other authors, collected in patent US20050154058A1, “Method of preparing hydroxytyrosol esters, esters thus obtained and use of same” (priority 2002, published 2005).

Columns and labels:
[1] = state of the art
[2] = state of the art, compared in words with free hydroxytyrosol or usual additives

Row | solubility in lipophilic medium [1] | SMILES | antioxidant activity / protective capacity against oxidation [2]
1 | liposoluble | CC(=O)OCCc1ccc(O)c(O)c1 [Example 1, 2-(3,4-dihydroxyphenyl)ethyl Acetate] | the same activity towards oxidation as does free hydroxytyrosol itself
2 | virtually insoluble in lipophilic medium | OCCc1ccc(O)c(O)c1 [Hydroxytyrosol, 2-(3,4-dihydroxyphenyl)ethanol] | much greater than the antioxidant additives normally used
